Assays:
Brain penetration data = assay type: in vivo; settings: brain/blood, read-out: Brain/Blood ratio
human LXRβ = molecular target: T1, human LXRβ (Homo sapiens, UniProt P55055); experiment: Ligand-binding test procedure for human LXRβ (3H T0901317 tracer, flash plates); settings: competition with 3H T0901317; read-out: hLXRb binding IC50
T1 construct: biotin (biotinylated); made in house; host or cells: E. coli
T1 sequence (P55055 1-460): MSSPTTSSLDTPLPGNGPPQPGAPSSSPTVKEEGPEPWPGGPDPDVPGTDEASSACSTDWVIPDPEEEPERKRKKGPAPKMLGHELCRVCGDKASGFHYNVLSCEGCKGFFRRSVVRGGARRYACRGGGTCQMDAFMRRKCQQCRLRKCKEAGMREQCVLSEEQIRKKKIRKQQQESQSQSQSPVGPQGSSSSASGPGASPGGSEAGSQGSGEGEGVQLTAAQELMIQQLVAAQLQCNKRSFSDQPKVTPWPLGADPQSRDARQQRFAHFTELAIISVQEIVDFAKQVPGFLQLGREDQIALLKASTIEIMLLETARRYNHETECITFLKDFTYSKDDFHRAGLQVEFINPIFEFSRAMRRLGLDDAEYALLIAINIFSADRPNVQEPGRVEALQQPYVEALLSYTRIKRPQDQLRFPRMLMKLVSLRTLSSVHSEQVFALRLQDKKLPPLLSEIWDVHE
Description: I. Ligand-Binding Test Procedure for Human LXRβ.
• Buffer: 100 mM KCl, 100 mM TRIS (pH 7.4 at +4° C.), 8.6% glycerol, 0.1 mM PMSF*, 2 mM MTG*, 0.2% CHAPS (* not used in wash buffer) • Tracer: ^3H T0901317 • Receptor source: E. coli extracted from cells expressing biotinylated hLXRβ. Extract was made in a similar buffer as above, but with 50 mM TRIS.
• Washed streptavidin and coated flash plates with wash buffer. • Diluted receptor extract to give Bmax˜4000 cpm and add to the wells. • Wrapped the plates in aluminum foil and stored them at +4° C. overnight.
(§1) • Made a dilution series in DMSO of the test ligands. • Made a 5 nM solution of the radioactive tracer in buffer. • Mixed 2500 diluted tracer with 50 of the test ligand from each concentration of the dilution series. • Washed the receptor-coated flash plates. • Added 2000 per well of the ligand/radiolabel mixture to the receptor-coated flash plates. • Wrapped the plates in aluminum foil and incubate at +4° C. over night.
• Aspirated wells, and washed the flashed plates. Sealed the plate. • Measured the remaining radioactivity in the plate.

ABCA1 gene = experiment: Gene regulation by LXR (murine): ABCA1 gene regulation, mRNA by real-time PCR; assay type: cell-based; settings: Mus musculus; for Emax: read-out: Agonism ABCA1
human LXRα = molecular target: T2, human LXRα (Homo sapiens, UniProt Q13133); experiment: Ligand-binding test procedure for human LXRα (3H T0901317 tracer, flash plates); settings: competition with 3H T0901317; read-out: hLXRa binding IC50
T2 construct: biotin (biotinylated); made in house; host or cells: E. coli
T2 sequence (Q13133 1-447): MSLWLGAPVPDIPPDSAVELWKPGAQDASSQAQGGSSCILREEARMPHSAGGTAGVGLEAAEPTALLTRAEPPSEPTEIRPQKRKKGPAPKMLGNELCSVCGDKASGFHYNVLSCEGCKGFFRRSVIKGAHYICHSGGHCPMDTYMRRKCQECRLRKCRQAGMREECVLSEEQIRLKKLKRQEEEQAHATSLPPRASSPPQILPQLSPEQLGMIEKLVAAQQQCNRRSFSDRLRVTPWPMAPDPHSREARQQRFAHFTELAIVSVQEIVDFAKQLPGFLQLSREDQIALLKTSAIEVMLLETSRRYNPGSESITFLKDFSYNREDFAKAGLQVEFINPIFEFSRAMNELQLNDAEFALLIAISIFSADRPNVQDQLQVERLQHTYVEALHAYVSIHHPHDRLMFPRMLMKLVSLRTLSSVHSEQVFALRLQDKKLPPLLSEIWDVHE
Description: II. Ligand-Binding Test Procedure for Human LXRa.
• Buffer: 100 mM KCl, 100 mM TRIS (pH 7.4 at +4° C.), 8.6% glycerol, 0.1 mM PMSF*, 2 mM MTG*, 0.2% CHAPS (* not used in wash buffer) • Tracer: ^3H T0901317 • Receptor source: E. coli extract from cells expressing biotinylated hLXRα. Extract was made in a similar buffer as above, but with 50 mM TRIS.
• Washed streptavidin and coated flash plates with wash buffer. • Diluted receptor extract to give Bmax˜4000 cpm and add to the wells. • Wrapped the plates in aluminum foil and stored them at +4° C. over night.
as §1
• Aspirated wells, and wash the flashed plates. Sealed the plate. • Measured the remaining radioactivity in the plate.

| SMILES | Kp (Brain penetration data) | IC50 (human LXRβ) [nM] | EC50 (ABCA1 gene) [nM] | IC50 (human LXRα) [nM] | Emax (ABCA1 gene) [%] |
| --- | --- | --- | --- | --- | --- |
| CCS(=O)(=O)c1cccc(Oc2ccc(Cl)c(-c3nc(C)nc4c(C(F)(F)F)cccc34)c2)c1 | 1.57 |  |  |  |  |
| CCS(=O)(=O)c1cccc(Oc2ccc(F)c(-c3ncnc4c(Cl)cccc34)c2)c1 | 1.2 |  |  |  |  |
| CS(=O)(=O)c1cccc(Oc2ccc(F)c(-c3ncnc4c(Cl)cccc34)c2)c1 | 1.2 |  |  |  |  |
| Cc1nc(-c2cccc(-c3cccc(S(C)(=O)=O)c3)c2)c2cccc(C(F)(F)F)c2n1 | 2.27 |  |  |  |  |
| CNS(=O)(=O)c1cccc(Oc2ccc(F)c(-c3ncnc4c(Cl)cccc34)c2)c1 [Example 23, 3-[3-(8-chloroquinazolin-4-yl)-4-fluorophenoxy]-N-methylbenzenesulfonamide] |  | 17 | 450 | 33 | 85 |

Continued, in another order:

| Kp (Brain penetration data) | IC50 (human LXRβ) [nM] | EC50 (ABCA1 gene) [nM] | IC50 (human LXRα) [nM] | SMILES | Emax (ABCA1 gene) [%] |
| --- | --- | --- | --- | --- | --- |
| 0.06 | 41 | 1900 | 407 | NC(=O)CCCS(=O)(=O)c1cccc(Oc2ccc(Cl)c(-c3ncnc4c(C(F)(F)F)cccc34)c2)c1 [Example 9, 4-[(3-{4-chloro-3-[8-(trifluoromethyl)quinazolin-4-yl]phenoxy}phenyl)sulfonyl]-butanamide] | 91 |
| 1.45 |  |  |  | CS(=O)(=O)c1cccc(Oc2ccc(F)c(-c3ncnc4c(C(F)(F)F)cccc34)c2)c1 |  |
| 0.55 | 112 | 2470 | 1520 | N#CCCCS(=O)(=O)c1cccc(Oc2ccc(F)c(-c3ncnc4c(C(F)(F)F)cccc34)c2)c1 [Example 25, 4-[(3-{4-fluoro-3-[8-(trifluoromethyl)quinazolin-4-yl]phenoxy}phenyl)sulfonyl]butanenitrile] | 68 |
|  | 97 |  | 2800 | Cc1nc(-c2cc(Oc3cccc(S(=O)(=O)CCCCC#N)c3)ccc2Cl)c2cccc(C(F)(F)F)c2n1 [Example 61, 5-[(3-{4-chloro-3-[2-methyl-8-(trifluoromethyl)quinazolin-4-yl]phenoxy}phenyl)sulfonyl]-pentanenitrile] | 27 |
|  | 116 |  | 2990 | NCCCS(=O)(=O)c1cccc(Oc2ccc(F)c(-c3ncnc4c(C(F)(F)F)cccc34)c2)c1 [Example 28, 3-[(3-{4-fluoro-3-[8-(trifluoromethyl)quinazolin-4-yl]phenoxy}phenyl)sulfonyl]propan-1-amine] | 3 |
|  | 66 | 415 | 536 | CS(=O)(=O)CCCCS(=O)(=O)c1cccc(Oc2ccc(F)c(-c3ncnc4c(C(F)(F)F)cccc34)c2)c1 [Example 37, 4-[2-fluoro-5-(3-{[4-(methylsulfonyl)butyl]sulfonyl}phenoxy)phenyl]-8-(trifluoromethyl)-quinazoline] | 77 |
| 0.16 | 40 | 1760 | 425 | N#CCS(=O)(=O)c1cccc(Oc2ccc(Cl)c(-c3ncnc4c(C(F)(F)F)cccc34)c2)c1 [Example 11, [(3-{4-chloro-3-[8-(trifluoromethyl)quinazolin-4-yl]phenoxy}phenyl)sulfonyl]-acetonitrile] | 95 |

— patent US20100184786A1, “Polar Quinazolines” (Wyeth LLC, priority 2008, published 2010)
